The text below walks through data of US20260314597A1, “A NOVEL APPROACH TO INTERFERE IN THE PHENYLPROPANOID BIOSYNTHETIC PATHWAY TO REDUCE PINK-RIB DISORDER IN FRESH LETTUCE” (University of Florida Research Foundation, Inc., priority 2022, published 2026).

One test concerns fresh lettuce midribs. The settings on record: literature treatments; cited from earlier work.
Another test deals with PPO. The settings on record: role: substrate; lettuce tissues; cited from earlier work.
Test [1] has as its system iceberg and Romaine lettuce midribs. Briefly: Visual (subjective) pink rib development in wounded, immersed lettuce midribs stored at 5° C. In kind it is in vivo. The settings on record: for reduction of pink rib severity: naringenin (1.8 mM) and serotonin, reason for not imaging. On the procedure:
Six preliminary experiments were performed to determine treatment conditions for the three final experiments reported here. It was determined that the method developed by Cantwell (2016) induced pink rib discoloration in lettuce midribs during storage at 5° C. via mimicking mechanical damage and was, therefore, selected for use in all preliminary and final tests. […] Concentrations evaluated were: L-cysteine (0.4, 0.8, 2.1, 4.1, 8.3 mM), naringenin (0.2, 0.4, 0.9, 1.8, 3.7 mM), serotonin (2.8, 5.7 mM), and melatonin (0.2, 0.4, 1.1, 2.2, 4.3 mM) (data not presented). […] Therefore, this study employed the one or two concentrations for each compound with the greatest potential efficacy in three independent tests, Test 1 to 3 (Table 1).
For Test 1, the evaluations for pink rib development, protein quantification, and enzyme activity were conducted with Romaine and iceberg lettuce heads (36 heads per type; cultivars unknown) purchased (February 2020) upon arrival at a local grocery store in Gainesville, FL, and immediately transported to the Postharvest Horticulture Laboratory at the University of Florida in Gainesville, FL. For Test 2, metabolite extraction and detection were conducted with commercially grown, harvested, and cooled Romaine (‘Tall Guzmaine’) and iceberg (‘Chosen’) lettuce (December 2020) grown in Belle Glade, FL. For Test 3, untargeted metabolomics was performed using commercially grown, harvested, and cooled Romaine (‘Manatee’) lettuce grown in Belle Glade, FL (April 2021). To keep the lettuce head samples cool while preventing freeze damage during transport, a 3- to 6-inch layer of crushed ice was placed on the bottom of each 114-L cooler. A piece of waxed, corrugated fiberboard was placed on top of the ice prior to packing with the lettuce samples for transport the same day to the Postharvest Horticulture Laboratory in Gainesville (approximately 4 h distant).
In all tests, experimental setup began immediately upon arrival to the laboratory. 90 outer leaves were randomly selected from 18 to 22 lettuce heads that met commercial and damage-free quality standards. A midrib segment (12.5 cm) was excised from the center of each leaf and excess leaf blade tissue was trimmed parallel to the midrib. This procedure was adapted from the wounding procedure of Cantwell (2016). Each midrib was then partially sliced transversally at 1.3-cm increments along the midrib. Midribs (n=15) were immediately immersed for 30 s in one of five treatment solutions: deionized water (wounded control), L-cysteine (4.1 mM), naringenin (1.8 mM) with 20% dimethyl sulfoxide (DMSO), serotonin (2.8 or 5.7 mM) or melatonin (4.3 mM) with 0.50% DMSO. Immediately following immersion, the midribs for each treatment were patted dry using paper towels and placed (n=5) in a breathable, high-density polyethylene bag (n=3) (Narrow Profile Produce Bags [14×18 inches] Model No. S-19156, Uline®, Pleasant Prairie, WI). Unwounded control midribs were stored in the same manner. To allow for direct comparison, each cut site on each midrib was assigned an initial discoloration value on day 1 based on the coloration of the rib. Samples were stored at 5° C. with 95-98% relative humidity (RH) for 5 d, simulating commercial storage.
All chemicals were of laboratory or reagent grade from Alfa Aesar (Thermo Fisher Scientific, Ward Hill, MA, USA) or Phyto Technology Laboratories (Shawnee Mission, KS, USA). L-cysteine (4.1 mM) solution was prepared by dissolving […] in 100 ml deionized water. Naringenin (1.8 mM) solution was prepared by dissolving […] in 20 mL of DMSO and diluting to a 100 mL volume with deionized water. A stock solution of serotonin (5.7 mM) was prepared by dissolving 100 mg of serotonin in 100 ml of deionized water; a second solution of serotonin (2.8 mM) was prepared by diluting the stock solution two-fold with deionized water. […]

The next test deals with PAL. The settings on record: naringenin; cited from earlier work.
For test [2] the following is noted: naringenin; in vitro for lettuce; cited from earlier work.
The subject of a further test is apple and pear discs. The settings on record: serotonin 1 mM, 4° C., cited from earlier work.

“Also recorded” adds a separate entry of the source.

Take `CC1=CC1` [1-methylcyclopropene]: in the test on fresh lettuce midribs, the “effectiveness in reducing pink rib discoloration” value is given as “slightly effective or completely ineffective”.
As for `CCCCCCc1ccc(O)cc1O` [4-hexylresorcinol], the “effectiveness in reducing pink rib discoloration” value with fresh lettuce midribs was “slightly effective or completely ineffective”.
Turning to `[Cl-].[Na+]` [NaCl], the “effectiveness in reducing pink rib discoloration” value in the test on fresh lettuce midribs is “slightly effective or completely ineffective”.
Take `O=C(/C=C/c1ccc(O)c(O)c1)O[C@@H]1C[C@](O)(C(=O)O)C[C@@H](O)[C@H]1O` [chlorogenic acid]: the “specificity to PPO” value in the test with PPO is “greatest specificity to PPO”.
On to `O=C(O)CC(O)(CC(=O)O)C(=O)O` [citric acid], for which the “effectiveness in reducing pink rib discoloration” value in the test with fresh lettuce midribs is listed as “slightly effective or completely ineffective”.
Take `C=C` [ethylene]: in the test on fresh lettuce midribs, the “effectiveness in reducing pink rib discoloration” value is listed as “slightly effective or completely ineffective”.
For `O=C(O)CN(CCN(CC(=O)O)CC(=O)O)CC(=O)O` [ethylenediaminetetracetic acid (EDTA), ethylenediaminetetracetic acid], in the test with fresh lettuce midribs, the “effectiveness in reducing pink rib discoloration” value is on record as “slightly effective or completely ineffective”.
Turning to `N[C@@H](CCC(=O)N[C@@H](CS)C(=O)NCC(=O)O)C(=O)O` [glutathione], in the test with fresh lettuce midribs, the “effectiveness in reducing pink rib discoloration” value was “slightly effective or completely ineffective”.
On to `O=C1C[C@@H](c2ccc(O)cc2)Oc2cc(O)cc(O)c21` [naringenin], for which the “pink rib severity (visual rating)” value in test [1] (iceberg, naringenin 1.8 mM, 5 d at 5° C.) was “moderately severe (4=moderately severe)”; in test [1] (iceberg, naringenin immersion up to 3.7 mM, 5 d at 5° C.), “moderately severe (4=moderately severe)”. Moreover, in test [1], the “reduction of pink rib severity” value was “unsuccessful reduction of pink rib severity; also recorded: equally unsuccessful”. Also, the “effect on pink rib” value in test [1] (naringenin up to 3.7 mM, 5 d at 5° C.) is on record as “did not successfully reduce pink rib”. Moreover, the “PAL activity and subsequent development of phenylpropanoids” value in the test with PAL was “represses PAL activity and subsequent development of phenylpropanoids”. In addition, the “antioxidant capacity (FRAP)” value in test [2] is reported as “increase in antioxidant capacity”.
With `O=C(O)c1ccc(O)cc1` [p-hydroxybenzoic acid], the “effectiveness in reducing pink rib discoloration” value with fresh lettuce midribs was “slightly effective or completely ineffective”.
On to `NCCc1c[nH]c2ccc(O)cc12` [serotonin], for which the “pink rib severity (visual rating)” value in test [1] (Romaine, serotonin 2.8 or 5.7 mM, 5 d at 5° C.) is “moderately severe (4=moderately severe)”. For the same molecule, in test [1] (iceberg, serotonin 2.8 or 5.7 mM, 5 d at 5° C.), the “pink rib severity (visual rating)” value is given as “moderate (3=moderate)”. The “reduction of pink rib severity” value in test [1] was “unsuccessful reduction of pink rib severity”. The “effect on pink rib development” value in test [1] (serotonin, iceberg and Romaine, 5 d at 5° C.) is “did not reduce pink rib development in either lettuce type”. In the test on apple and pear discs (30-min submersion), the “extension of bright appearance” value was “up to 6 months”. Moreover, in the test on apple and pear discs (30 min), the “browning inhibition compared with ascorbic acid” value is “more effective than ascorbic acid” and the “duration of browning inhibition” value was “up to 24 h”.
